Test results published in US20170072024A1, “ANTIMICROBIAL COMPOSITION COMPRISING A CARBOHYDRATE, GLUCOSE OXIDASE AND ZINC OXIDE” (MELIPHARM, priority 2014, published 2017).

Key:
P. aeruginosa = test: Bacterial proliferation test, 96 well microplate (OD 450 nm, 24 h); format: cell-based; conditions: positive control = 100% proliferation
Experimental: (§1) The microbial strains used for the tests are the following bacteria: • P. aeruginosa • S. aureus The tests were conducted on microplates to evaluate the MIC (Minimum Inhibitory Concentration). […] Each well is inoculated with 50 μL of bacterial suspension to be tested in a Muller-Hinton (MH) broth+150 μL of diluted test product solution. […] Each specimen is tested in triplicate. The optical densities (OD) are read a first time at time 0 (T0) at 450 nm. The plates are then incubated for 24 h at 37° C. with agitation. At the end of incubation, the OD is measured again at 450 nm (T24). The proliferation percentage is calculated as follows: Proliferation=(DOT24−DOT0)/(DOT24Control+−DOT0Control+)

S. aureus = test: as above; format: cell-based; conditions: positive control = 100% proliferation
Experimental: as §1

Molecule | proliferation percentage of P aeruginosa (P. aeruginosa; formula at 1.5% (v/v)) | proliferation percentage of P aeruginosa (P. aeruginosa; formula at 3% (v/v)) | proliferation percentage of P aeruginosa (P. aeruginosa; formula at 6% (v/v)) | proliferation percentage of P aeruginosa (P. aeruginosa; formula at 9% (v/v)) | proliferation percentage of S. aureus (S. aureus; formula at 1.5% (v/v)) | proliferation percentage of S. aureus (S. aureus; formula at 3% (v/v)) | proliferation percentage of S. aureus (S. aureus; formula at 6% (v/v)) | proliferation percentage of S. aureus (S. aureus; formula at 9% (v/v))
O=C[C@H](O)[C@@H](O)[C@H](O)[C@H](O)CO [Formula 9, glucose] | 100% | 206% | 206% | 113% | 96% | 86% | 83% | 72%
glucose oxidase [Formula 8] | 96% | 96% | 91% | 86% | 81% | 72% | 54% | 46%
